# Columns and labels:
# Type in all cases: cell-based
# [1] = test system: SW48 cell line; assay: MTT cytotoxicity assay, SW48; settings: MTT assay, 72 hour incubation
# Protocol: (§1) Tumor cell lines were maintained in RPMI1640 medium supplemented with 10% heat-inactivated fetal bovine serum, 2 mM L-glutamine and 1 mM sodium pyruvate. 1800 cells per well were seeded in a volume of 180 μl in a 96-well flat bottom polystyrene plate. The cells were allowed to adhere overnight at 37° C. in a CO2 incubator. Ligands were initially formulated in DMSO, and stocks stored at −80° C. They were then further formulated at lox concentration in RPMI1640 medium. 20 ul of diluted samples were added into each treatment well. On each plate, blank wells with no cells, and untreated wells containing cells, were included. Plates were then cultured at 37° C. in a CO2 incubator for 72 hrs. Cytotoxicity was evaluated using a tetrazolium salt-based assay, the MTT assay. After 72 hours, the supernatant was removed from each well and 200 μl of a sterile filtered 500 μg/ml MTT solution in water added to each well. The plates were then incubated at 37° C. in a CO2 incubator for 4 hrs. The supernatant was then removed and the formazan crystals formed solubilized by adding 150 μl of DMSO to each well. The plate was then read on a plate reader at 540 nm, and percentage cell survival calculated as follows: ((mean absorbance treated wells at concentration x−mean absorbance blank wells)[…](mean absorbance untreated wells at concentration x−mean absorbance blank wells))×100. Data were plotted as concentration in nM vs. % cell survival in Microsoft Excel, and IC50 values (concentration where cell survival is reduced by a half) were determined from the graph.
# [2] = test system: LIM1215 cell line; assay: MTT cytotoxicity assay, LIM1215; settings: MTT assay, 72 hour incubation
# Protocol: as §1
# [3] = test system: SW620 cell line; assay: MTT cytotoxicity assay, SW620; settings: MTT assay, 72 hour incubation
# Protocol: as §1
# [4] = test system: LIM1215 cell line (gastric); assay: MTT cytotoxicity assay, LIM1215; settings: LIM1215, 72 h, read-out: Cytotoxicity LIM1215 (72 hours)
# Protocol: as §1
SMILES,Cytotoxicity SW48 (72 hrs) [1],Cytotoxicity LIM1215 (72 hours) [2],Cytotoxicity SW620 (72 hours) [3],IC50 [4] [nM]
"COc1cc2c(cc1OCc1cccc(CC(=O)N3C[C@@H](C)c4c3cc(O)c3ccccc43)c1)NC(=O)[C@@H]1CCCCN1C2=O [Compound 143, (S)-3-((3-(2-((S)-5-Hydroxy-1-methyl-1,2-dihydro-3H-benzo[e]indol-3-yl)-2-oxoethyl)benzyl)oxy)-2-methoxy-7,8,9,10-tetrahydrobenzo[e]pyrido[1,2-a][1,4]diazepine-6,12(5H,6aH)-dione]",Not active,Not active,Not active,–
COc1cc2c(cc1OCc1cccc(CC(=O)N3C[C@@H](CCl)c4c3cc(OC(=O)N3CCN(C)CC3)c3ccccc43)c1)NC(=O)[C@@H]1CCCCN1C2=O [Compound 140],Not active,–,Not active,18.1
